Assay results reported in patent publication US7550459B2, “Tetrahydroquinoline analogues as muscarinic agonists” (Acadia Pharmaceuticals, Inc., priority 2001, dated 2009).
Read-outs that look alike come from different tables or passages of the source.

Assays:
Type in all cases: cell-based
M1 muscarinic receptor = target: T1, M1 muscarinic receptor (Homo sapiens, UniProt P11229); assay: Receptor Selection and Amplification (R-SAT) assay, cloned M1 receptor; set-up: M1 Eff: scale not given here; conditions: for Emax: read-out: m1 % Efficacy
T1 construct: expressed in transfected cells
T1 sequence (P11229 1-460): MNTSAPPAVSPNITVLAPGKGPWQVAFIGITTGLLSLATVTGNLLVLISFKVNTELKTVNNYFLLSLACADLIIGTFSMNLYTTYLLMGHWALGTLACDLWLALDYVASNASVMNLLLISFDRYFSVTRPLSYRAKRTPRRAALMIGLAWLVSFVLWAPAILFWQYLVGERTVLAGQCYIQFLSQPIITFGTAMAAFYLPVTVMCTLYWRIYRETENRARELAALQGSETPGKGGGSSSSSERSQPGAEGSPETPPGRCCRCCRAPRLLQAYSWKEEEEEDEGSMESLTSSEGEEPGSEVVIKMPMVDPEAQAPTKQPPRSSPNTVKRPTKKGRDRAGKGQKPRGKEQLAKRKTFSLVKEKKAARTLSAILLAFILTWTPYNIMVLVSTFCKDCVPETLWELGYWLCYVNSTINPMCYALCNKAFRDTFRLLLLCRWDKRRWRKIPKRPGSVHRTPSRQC
Source text: (§1) The EC50 for an agonist is intended to denote the concentration of a compound needed to achieve 50% of a maximal response seen in an in vitro assay such as R-SAT. For inverse agonists, EC50 is intended to denote the concentration of a compound needed to achieve 50% inhibition of an R-SAT response from basal, no compound, levels.
(§2) A particularly convenient functional assay system is the receptor selection and amplification assay (R-SAT assay) in U.S. Pat. No. 5,707,798, which describes a method of screening for bioactive compounds by utilizing the ability of cells transfected with receptor DNA, e.g., coding for the different muscarinic subtypes, to amplify in the presence of a ligand of the receptor. Cell amplification is detected as increased levels of a marker also expressed by the cells.
(§3) Receptor Selection and Amplification (R-SAT) assays were carried out using the cloned M1-M5 receptors essentially as described in: Brauner-Osborne H, Brann M R. Pharmacology of muscarinic acetylcholine receptor subtypes (m1-m5): high throughput assays in mammalian cells. Eur J Pharmacol Jan. 4, 1996;295(1):93-102, and Spalding T A, Trotter C, Skjaerbaek N, Messier T L, Currier E A, Burstein E S, Li D, Hacksell U, Brann M R. Discovery of an ectopic activation site on the M(1) muscarinic receptor. Mol Pharmacol. 2002 June;61(6):1297-302.

M4 muscarinic receptor = target: T2, M4 muscarinic receptor (Homo sapiens, UniProt P08173); assay: Receptor Selection and Amplification (R-SAT) assay, cloned M4 receptor; conditions: for Emax: read-out: m4 % Efficacy
T2 construct: expressed in transfected cells
T2 sequence (P08173 1-479): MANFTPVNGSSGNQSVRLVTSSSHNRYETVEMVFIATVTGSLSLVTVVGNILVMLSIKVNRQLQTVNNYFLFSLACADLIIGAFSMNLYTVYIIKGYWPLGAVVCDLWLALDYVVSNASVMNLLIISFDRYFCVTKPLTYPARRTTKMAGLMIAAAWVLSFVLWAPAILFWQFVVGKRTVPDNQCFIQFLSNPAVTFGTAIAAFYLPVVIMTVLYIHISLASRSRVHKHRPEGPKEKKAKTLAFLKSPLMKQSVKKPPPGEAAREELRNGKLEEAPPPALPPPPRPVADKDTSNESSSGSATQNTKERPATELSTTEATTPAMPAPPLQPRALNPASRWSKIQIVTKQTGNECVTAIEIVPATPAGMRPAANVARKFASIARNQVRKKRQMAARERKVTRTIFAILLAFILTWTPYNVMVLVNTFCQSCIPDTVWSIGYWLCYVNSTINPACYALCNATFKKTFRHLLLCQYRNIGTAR
Source text: as §1, §2, §3

M2 muscarinic receptor = target: T3, M2 muscarinic receptor (Homo sapiens, UniProt P08172); assay: Receptor Selection and Amplification (R-SAT) assay, cloned M2 receptor; set-up: M2 Eff: scale not given here; conditions: for Emax: read-out: m2 % Efficacy
T3 construct: expressed in transfected cells
T3 sequence (P08172 1-466): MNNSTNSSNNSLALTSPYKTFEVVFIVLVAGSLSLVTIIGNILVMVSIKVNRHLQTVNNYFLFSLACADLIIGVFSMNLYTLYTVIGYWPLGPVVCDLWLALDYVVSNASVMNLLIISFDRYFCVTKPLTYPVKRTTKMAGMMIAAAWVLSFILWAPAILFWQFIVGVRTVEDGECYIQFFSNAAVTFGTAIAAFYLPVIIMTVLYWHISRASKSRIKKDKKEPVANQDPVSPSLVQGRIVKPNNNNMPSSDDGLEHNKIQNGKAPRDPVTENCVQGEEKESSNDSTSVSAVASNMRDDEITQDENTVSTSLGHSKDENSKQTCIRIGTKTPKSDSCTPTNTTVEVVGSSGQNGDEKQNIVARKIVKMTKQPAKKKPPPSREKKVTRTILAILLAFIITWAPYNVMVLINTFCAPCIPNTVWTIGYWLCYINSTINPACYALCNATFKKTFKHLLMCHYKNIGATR
Source text: as §1, §2, §3

M3 muscarinic receptor = target: T4, M3 muscarinic receptor (Homo sapiens, UniProt P20309); assay: Receptor Selection and Amplification (R-SAT) assay, cloned M3 receptor
T4 construct: expressed in transfected cells
Source text: as §1, §2, §3

[1] = R-SAT, cloned m1 receptor, read-out: m1 pEC50 (converted)
[2] = R-SAT, cloned m4 receptor, read-out: m4 pEC50 (converted)
[3] = R-SAT, cloned m2 receptor, read-out: m2 pEC50 (converted)
[4] = M2 pEC50, R-SAT, second table (COMPOUND ID series)
[5] = R-SAT, second table (COMPOUND ID series)
[6] = M1 pEC50, R-SAT, second table (COMPOUND ID series)
[7] = m2 pEC50, R-SAT, cloned m2 receptor
[8] = m1 pEC50, R-SAT, cloned m1 receptor
[9] = R-SAT, second table (COMPOUND ID series), read-out: M2 pEC50 (converted)
[10] = R-SAT, second table (COMPOUND ID series), read-out: M3 pEC50 (converted)
[11] = R-SAT, second table (COMPOUND ID series), read-out: M1 pEC50 (converted)

T4 sequence (P20309 whole entry): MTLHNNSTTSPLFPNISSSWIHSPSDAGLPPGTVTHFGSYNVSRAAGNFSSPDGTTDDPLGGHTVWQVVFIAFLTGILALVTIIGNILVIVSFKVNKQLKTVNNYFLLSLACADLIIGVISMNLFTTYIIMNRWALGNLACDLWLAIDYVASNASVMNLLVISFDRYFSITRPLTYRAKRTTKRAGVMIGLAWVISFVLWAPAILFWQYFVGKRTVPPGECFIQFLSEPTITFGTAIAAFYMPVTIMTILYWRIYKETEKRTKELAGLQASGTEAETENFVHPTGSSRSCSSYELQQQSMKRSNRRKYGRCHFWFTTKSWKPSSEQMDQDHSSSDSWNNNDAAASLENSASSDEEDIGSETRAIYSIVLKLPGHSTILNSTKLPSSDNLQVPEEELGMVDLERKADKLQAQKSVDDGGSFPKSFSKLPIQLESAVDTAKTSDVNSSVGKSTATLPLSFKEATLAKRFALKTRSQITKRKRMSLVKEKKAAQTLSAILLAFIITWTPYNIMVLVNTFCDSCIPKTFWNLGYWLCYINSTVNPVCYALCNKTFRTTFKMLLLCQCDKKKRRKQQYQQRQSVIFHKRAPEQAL

Structure (SMILES) | Emax (M1 muscarinic receptor; R-SAT, cloned m1 receptor) [%] | EC50 (M1 muscarinic receptor; [1]) [nM] | Emax (M4 muscarinic receptor; R-SAT, cloned m4 receptor) [%] | EC50 (M4 muscarinic receptor; [2]) [nM] | EC50 (M2 muscarinic receptor; [4]) [nM] | M2 Eff (M2 muscarinic receptor; [5]) | M3 Eff (M3 muscarinic receptor; [5]) | EC50 (M1 muscarinic receptor; [6]) [nM] | M1 Eff (M1 muscarinic receptor; [5]) | further results
CCCCC1CCN(CCCN2CCCc3cc(C)ccc32)CC1 [Compound 55LH44-A, 1-[3-(4-Butyl-piperidin-1-yl)-propyl]-6-methyl-1,2,3,4-tetrahydro-quinoline] | 54 | 316 | 28 | > 3160 |  |  |  |  |  | 
CCCCC1CCN(CCCN2CCOc3ccc(C)cc32)CC1 [Compound 64LHY91-6, 4-[3-(4-Butyl-piperidin-1-yl)-propyl]-6-methyl-3,4-dihydro-2H-benzo[1,4]oxazine] | 86 | 63.1 | 52 | 251 |  |  |  |  |  | Emax (M2 muscarinic receptor; R-SAT, cloned m2 receptor): 31%; EC50 (M2 muscarinic receptor; [3]): 126 nM
C[C@@H](CN1C(=O)COc2ccccc21)CN1[C@@H]2CC[C@H]1C[C@@H](OCC1CC1)C2 [Compound 00262909, (R)-4-[3-(3a -Cyclopropylmethoxy-8-azabicyclo[3.2.1]oct-8-yl)-2-methylpropyl]-4H-benzo[1.4]oxazin-3-one] |  |  |  |  | 39.8 | 124 | 52 | 2.51 | 137 | EC50 (M3 muscarinic receptor): 398 nM
CCCCC1CCN(CCCN2c3ccccc3CCC2C)CC1 (stereo not shown) [Compound 55-LH-28-8, 1-[3-(4-Butyl-piperidin-1-yl)-propyl]-2-methyl-1,2,3,4-tetrahydro-quinoline] | 45 | 200 | 64 | > 3160 |  |  |  |  |  | Emax (M2 muscarinic receptor; R-SAT, cloned m2 receptor): 67%; EC50 (M2 muscarinic receptor; [3]): > 3160 nM
CCCCCC1CC2CCC(C1)N2C[C@@H](C)CN1C(=O)COc2ccccc21 (stereo partly drawn) [Compound 108LM39-36, (R)-4-[2-Methyl-3-(3-pentyl-8-azabicyclo[3.2.1]oct-8-yl)propyl]-4H-benzo[1,4]oxazin-3-one] |  |  |  |  |  |  |  |  |  | EC50 (M2 muscarinic receptor; [7]): 7.94 nM; Emax (M2 muscarinic receptor): 37%; EC50 (M1 muscarinic receptor; [8]): 1.58 nM; Emax (M1 muscarinic receptor): 106%; EC50 (M4 muscarinic receptor): 20 nM; Emax (M4 muscarinic receptor): 71%
CCCCC1CCN(CCCN2c3cc(F)ccc3CCC2C)CC1 (stereo not shown) [Compound 77LH02-1917, 1-[3-(4-Butyl-piperidin-1-yl)-propyl]-7-fluoro-2-methyl-1,2,3,4-tetrahydro-quinoline] | 55 | 200 | 37 | > 3160 |  |  |  |  |  | 
CCON=C1CC2CCC(C1)N2C[C@@H](C)CN1C(=O)COc2ccccc21 (single isomer, unassigned) [Compound 00261435] |  |  |  |  | 79.4 | 128 | 82.8 | 3.98 | 121 | EC50 (M3 muscarinic receptor): 631 nM
C[C@H](CN1CCC(OCC2CC2)CC1)CN1C(=O)COc2ccccc21 [Compound 00262908, 4-[(R)-3-(4-Cyclopropylmethoxypiperidin-1-yl)-2-methylpropyl]-4H-benzo[1,4]oxazin-3-one] |  |  |  |  |  | 103 | 74 |  | 126 | EC50 (M2 muscarinic receptor; [9]): 631 nM; EC50 (M3 muscarinic receptor; [10]): 2510 nM; EC50 (M1 muscarinic receptor; [11]): 12.6 nM
CCCCCC1CC2CCC(C1)N2C[C@@H](C)CN1C(=O)CCc2ccccc21 (stereo partly drawn) [Compound 107LH55, (R)-1-[2-Methyl-3-(3-pentyl-8-azabicyclo[3.2.1]oct-8-yl)propyl]-3,4-dihydro-1H-quinolin-2-one] |  |  |  |  |  |  |  |  |  | EC50 (M2 muscarinic receptor; [7]): 31.6 nM; Emax (M2 muscarinic receptor): 28%; EC50 (M1 muscarinic receptor; [8]): 1.26 nM; Emax (M1 muscarinic receptor): 103%; EC50 (M4 muscarinic receptor): 50.1 nM; Emax (M4 muscarinic receptor): 54%
CCOCCC1CC2CCC(C1)N2CC(C)CN1C(=O)COc2ccccc21 (single isomer, unassigned) [Compound 00263201] |  |  |  |  | 79.4 | 52 | 30 | 1 | 126 | EC50 (M3 muscarinic receptor): 158 nM
CC(CN1C(=O)COc2ccccc21)CN1[C@@H]2CC[C@H]1C[C@@H](OCC1CC1)C2 (mixture of isomers) [Compound 00262573, (R,S)-4-[3-(3a-Cyclopropylmethoxy-8-azabicyclo[3.2.1]oct-8-yl)-2-methylpropyl]-4H-benzo[1.4]oxazin-3-one] |  |  |  |  | 50.1 | 72 |  | 3.98 | 120 | 
CCON=C1CC2CCC(C1)N2C[C@@H](C)CN1C(=O)COc2ccccc21 (single isomer, unassigned) [Compound 00261434] |  |  |  |  | 2000 | 50 |  | 631 | 110 | 
CCCCC1CCN(CCCN2CCCc3ccccc32)CC1 [Compound 55-LH-12-2, 1-[3-(4-Butyl-piperidin-1-yl)-propyl]-1,2,3,4-tetrahydro-quinoline] | 72 | 50.1 | 68 | 1000 |  |  |  |  |  | Emax (M2 muscarinic receptor; R-SAT, cloned m2 receptor): 35%; EC50 (M2 muscarinic receptor; [3]): 631 nM
CC(CN1CCC(OCC2CC2)CC1)CN1C(=O)COc2ccccc21 (racemic) [Compound 00262273, (R,S)-4-[3-(4-Cyclopropylmethoxypiperidin-1-yl)-2-methylpropyl]-4H-benzo[1,4]oxazin-3-one] |  |  |  |  |  | 98 | 35 |  | 155 | EC50 (M2 muscarinic receptor; [9]): 794 nM; EC50 (M3 muscarinic receptor; [10]): 1580 nM; EC50 (M1 muscarinic receptor; [11]): 25.1 nM
